Results reported in US7977379B2, “Method for angiogenesis inhibition or immunostimulation” (priority 2002, dated 2011).

How the values were obtained:
[1] = system: angiogenesis induced by means of MATRIGEL matrix (heparin, a-FGF); test: Test Example 4: angiogenesis induced by […] matrix (same method as test example 1); type: in vivo, C57BL/6 female mice; settings: for angiogenesis inhibition effect (in words): MATRIGEL weight and hemoglobin vs control group; for MATRIGEL weight / Quantity of hemoglobin: sixth day, n=5, mean±SE
Description: More specifically, normal mice (5 mice/1 group) were used after breeding C57BL/6 female mice (5 week old, purchased from Charles River JAPAN, Inc.) preliminarily for one week. While cooling test materials as shown in the following, each of the test materials 0.5 ml were transplanted to subcutaneous of abdomen of the mice. […] was taken out on the sixth day after transplantation, and state of angiogenesis was observed. In addition, the […] was freeze-dried, and it was weighed. […] Group 0 of nothing addition: […]

[2] = system: angiogenesis induced by means of MATRIGEL matrix (heparin, a-FGF); test: Test Example 1: angiogenesis induced by […] matrix transplanted subcutaneously (method of Passaniti et al); type: in vivo, C57BL/6 female mice; settings: for angiogenesis inhibition effect (in words): MATRIGEL weight and hemoglobin vs control group; for MATRIGEL Matrix weight / Quantity of hemoglobin: sixth day, n=5, mean±SE; for MATRIGEL Matrix weight: freeze-dried
From the text: Angiogenesis inhibition action of anhydrous glutamic acid, its derivatives, and various processed materials containing them concerning the present invention was examined by degree of angiogenesis induced by means of […]™ matrix (made by Becton Dikinson Labware Company, it is “cell culture backing material”, following “[…]”.) according to a method of Passaniti et al (Laboratory Invest., Vol. 67, Page 519-528, 1992).
An example of the […] matrix is shown with the following: BD Matrigel Basement Membrane Matrix is a solubilized basement membrane preparation extracted from the Engelbreth-Holm-Swarm (EHS) mouse sarcoma, a tumor rich in ECM proteins. Its major component is laminin, followed by collagen IV, heparan sulfate proteoglycans, entactin and nidogen.35 It also contains TGF-β fibroblast growth factor, tissue plasminogen activator36 and other growth factors which occur naturally in the EHS tumor. At room temperature, BD Matrigel Matrix polymerizes to produce biologically active matrix material resembling the mammalian cellular basement membrane.
More specifically, normal mice (5 mice/1 group) were used after breeding C57BL/6 female mice (5 week old, purchased from Charles River JAPAN, Inc.) preliminarily for one week. While cooling test materials as shown in the following, each of the test materials 0.5 ml were transplanted to subcutaneous of abdomen of the mice. […] was taken out on the sixth day after transplantation, and state of angiogenesis was observed. In addition, the […] was freeze-dried, and it was estimated the weight. Furthermore, pure water 1 ml was added to the […]. After homogenizing by Polytron and centrifuging at 2000 rpm for five minutes, supernatant was filtrated through filter with 0.2 μm and hemoglobin dosage was measured by using Hemoglobin-TestWako™ (made by Wako Pure Chemical Industries, Ltd.).
Group 0 of nothing addition: […]
Control group: […], heparin (64 units), Acidic Fibroblast Growth Factor (it is abbreviated to a-FGF as follows.) (1 ng/ml)
Group 1 of test material addition: […], heparin (64 units), a-FGF (1 ng/ml), sample 3 (800 μg/ml)
Group 2 of test material addition: […], heparin (64 units), a-FGF (1 ng/ml), sample 3 (400 μg/ml)
Group 3 of test material addition: […], heparin (64 units), a-FGF (1 ng/ml), sample 3 (200 μg/ml)
Group 4 of test material addition: […], heparin (64 units), a-FGF (1 ng/ml), sample 4 (800 μg/ml)
Group 5 of test material addition: […], heparin (64 units), a-FGF (1 ng/ml), sample 1 (600 μg/ml)
Group 6 of test material addition: […], heparin (64 units), a-FGF (1 ng/ml), sample 2 (800 μg/ml)
Group 7 of test material addition: […], heparin (64 units), a-FGF (1 ng/ml), sample1+sample 3 (for each 200 μg/ml)
Group 8 of test material addition: […], heparin (64 units), a-FGF (1 ng/ml), sample 5 (600 μg/ml)
Group 9 of test material addition: […], heparin (64 units), a-FGF (1 ng/ml), reference sample 1 (800 μg/ml)
As is apparent from each table, in control group, angiogenesis was promoted remarkably and weight of […] and hemoglobin dosage were increased compared with a group 0 of nothing addition. […] However, the angiogenesis inhibition effect was small with reference sample 1 (hot water extract of an agaricus mushroom).

[3] = material 200 μg/mL in MATRIGEL with heparin and a-FGF
[4] = material 400 μg/mL in MATRIGEL with heparin and a-FGF
[5] = material 800 μg/mL in MATRIGEL with heparin and a-FGF

| Compound | angiogenesis inhibition effect (in words) [1] | MATRIGEL weight [1, 5] [mg] | Quantity of hemoglobin [1, 5] [mg/MATRIGEL] | angiogenesis inhibition effect (in words) [2] | MATRIGEL Matrix weight [2, 5] [mg] | Quantity of hemoglobin [2, 5] [mg] | also measured |
| --- | --- | --- | --- | --- | --- | --- | --- |
| C[C@H](N)C(=O)O [alanine, reference compound] | not recognized | – | – | – | – | – | – |
| O=C(O)[C@@H]1CCCN1 [proline, reference compound] | not recognized | – | – | – | – | – | – |
| O=C1CC[C@@H](C(=O)O)N1.[Na] [sample 8, L-pyroglutamic acid sodium] | excellent angiogenesis inhibition effect | 121.5 ± 28.1 | 4.8 ± 1.2 | – | – | – | MATRIGEL weight [1, 3]: 265.3 ± 18.6 mg; Quantity of hemoglobin [1, 3]: 23.4 ± 2.0 mg/MATRIGEL; MATRIGEL weight [1, 4]: 190.2 ± 30.4 mg; Quantity of hemoglobin [1, 4]: 17.5 ± 3.6 mg/MATRIGEL |
| O=C1CCC(C(=O)O)N1.[Na] (racemic) [sample 9, DL-pyroglutamic acid sodium] | slightly low, but almost equal to sample 8 | 209.0 ± 30.8 | 15.8 ± 2.7 | – | – | – | – |
| Cl.N[C@@H](CCC(=O)O)C(=O)O [sample 3, anhydrous L-glutamate acid hydrochloride] | – | – | – | excellent angiogenesis inhibition effect | 110.9 ± 11.4 | 3.9 ± 0.5 | MATRIGEL Matrix weight [2, 3]: 276.6 ± 27.6 mg; Quantity of hemoglobin [2, 3]: 21.5 ± 4.0 mg; MATRIGEL Matrix weight [2, 4]: 232.2 ± 52.7 mg; Quantity of hemoglobin [2, 4]: 15.5 ± 4.6 mg |
| Cl.NC(CCC(=O)O)C(=O)O (racemic) [sample 4, anhydrous DL-glutamate acid hydrochloride] | – | – | – | slightly low, but almost equal to sample 3 | 237.3 ± 30.1 | 13.0 ± 2.9 | – |
